Measured values from ChEMBL document CHEMBL1144734, “Inhibitory effect of xanthones isolated from the pericarp of Garcinia mangostana L. on rat basophilic leukemia RBL-2H3 cell degranulation” (Bioorg Med Chem, 2008).
Activity calls are given as the source filed them. The rule behind the calls is not given here.

What was measured:
[1] = molecular target: Mitogen-activated protein kinase 1 (ERK2), Rattus norvegicus (UniProt P63086); test: Inhibition of ERK2 phosphorylation in IgE-sensitized rat RBL2H3 cells […] at 100 uM after 30 mins; settings: RBL-2H3
Chain of Mitogen-activated protein kinase 1 (ERK2), Rattus norvegicus (P63086 whole entry, looked up): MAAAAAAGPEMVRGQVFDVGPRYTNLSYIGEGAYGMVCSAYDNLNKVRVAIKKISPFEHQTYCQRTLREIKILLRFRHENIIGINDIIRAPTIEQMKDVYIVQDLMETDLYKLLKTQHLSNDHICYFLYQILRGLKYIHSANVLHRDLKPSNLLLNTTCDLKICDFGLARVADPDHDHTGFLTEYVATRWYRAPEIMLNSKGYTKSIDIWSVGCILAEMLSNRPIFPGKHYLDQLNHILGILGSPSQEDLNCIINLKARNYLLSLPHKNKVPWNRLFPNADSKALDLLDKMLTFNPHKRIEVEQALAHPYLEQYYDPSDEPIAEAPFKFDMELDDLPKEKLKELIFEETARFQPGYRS

[2] = molecular target: Mitogen-activated protein kinase 3 (ERK1), Rattus norvegicus (UniProt P21708); test: Inhibition of ERK1 phosphorylation in IgE-sensitized rat RBL2H3 cells […] at 2 uM after 30 mins; settings: RBL-2H3
Chain of Mitogen-activated protein kinase 3 (ERK1), Rattus norvegicus (P21708 whole entry, looked up): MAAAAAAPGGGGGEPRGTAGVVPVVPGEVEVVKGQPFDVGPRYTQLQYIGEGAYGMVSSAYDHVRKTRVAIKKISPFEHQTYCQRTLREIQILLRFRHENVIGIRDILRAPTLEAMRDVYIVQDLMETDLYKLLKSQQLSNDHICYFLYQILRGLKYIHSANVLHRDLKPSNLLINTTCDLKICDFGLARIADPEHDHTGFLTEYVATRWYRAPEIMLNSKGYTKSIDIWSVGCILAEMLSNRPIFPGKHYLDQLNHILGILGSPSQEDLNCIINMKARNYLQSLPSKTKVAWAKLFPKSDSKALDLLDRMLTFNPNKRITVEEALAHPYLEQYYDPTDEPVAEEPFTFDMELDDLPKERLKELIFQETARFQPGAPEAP

RBL-2H3 [3] = test: Inhibition of A23187-induced degranulation in rat RBL2H3 cells; format: functional, cell-based
[4] = molecular target: Mitogen-activated protein kinase 1 (ERK2), Rattus norvegicus (UniProt P63086); test: Inhibition of ERK2 phosphorylation in IgE-sensitized rat RBL2H3 cells […] at 2 uM after 30 mins; settings: RBL-2H3
[5] = system: Phospholipase C-gamma-1, Rattus norvegicus; test: Inhibition of PLC-gamma1 phosphorylation in IgE-sensitized rat RBL2H3 cells at 20 uM; settings: RBL-2H3
[6] = molecular target: Tyrosine-protein kinase Lyn (Rattus norvegicus) (UniProt Q07014); test: Inhibition of Lyn phosphorylation in IgE-sensitized rat RBL2H3 cells at 20 uM; format: cell-based; settings: RBL-2H3
Chain of Tyrosine-protein kinase Lyn (Rattus norvegicus) (Q07014 whole entry): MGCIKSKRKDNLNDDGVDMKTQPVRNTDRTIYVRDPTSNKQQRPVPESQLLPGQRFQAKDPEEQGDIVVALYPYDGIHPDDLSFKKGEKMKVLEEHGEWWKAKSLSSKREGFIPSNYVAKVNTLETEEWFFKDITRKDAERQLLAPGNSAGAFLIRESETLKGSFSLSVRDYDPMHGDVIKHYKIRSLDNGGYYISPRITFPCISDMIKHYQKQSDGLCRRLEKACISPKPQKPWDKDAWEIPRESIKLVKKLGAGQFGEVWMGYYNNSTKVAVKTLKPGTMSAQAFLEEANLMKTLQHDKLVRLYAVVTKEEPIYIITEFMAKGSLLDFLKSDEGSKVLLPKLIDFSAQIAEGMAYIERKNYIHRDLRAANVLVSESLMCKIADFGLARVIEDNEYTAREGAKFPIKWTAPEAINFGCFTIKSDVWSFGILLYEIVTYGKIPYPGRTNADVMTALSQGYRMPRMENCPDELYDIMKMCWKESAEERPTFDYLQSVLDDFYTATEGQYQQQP

RBL-2H3 [7] = test: Inhibition of DNP-BSA induced intracellular calcium elevation in IgE-sensitized rat RBL2H3 cells at 20 uM after 30 mins; format: functional, cell-based
[8] = molecular target: Mitogen-activated protein kinase 8 (JNK1), Rattus norvegicus (UniProt P49185); test: Inhibition of JNK1 phosphorylation in IgE-sensitized rat RBL2H3 cells at 20 uM; settings: RBL-2H3
Chain of Mitogen-activated protein kinase 8 (JNK1), Rattus norvegicus (P49185 whole entry, looked up): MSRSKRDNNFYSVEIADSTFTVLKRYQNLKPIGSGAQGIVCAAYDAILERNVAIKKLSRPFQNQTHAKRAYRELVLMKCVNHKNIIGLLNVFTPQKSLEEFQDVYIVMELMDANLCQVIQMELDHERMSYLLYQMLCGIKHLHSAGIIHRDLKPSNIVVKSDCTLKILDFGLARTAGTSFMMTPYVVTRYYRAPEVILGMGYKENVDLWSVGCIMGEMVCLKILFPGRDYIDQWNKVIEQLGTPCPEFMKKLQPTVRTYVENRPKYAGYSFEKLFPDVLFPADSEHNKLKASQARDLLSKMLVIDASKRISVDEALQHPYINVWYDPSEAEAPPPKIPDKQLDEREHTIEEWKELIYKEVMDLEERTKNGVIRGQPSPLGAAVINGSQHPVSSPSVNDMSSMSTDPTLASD

RBL-2H3 [9] = test: Inhibition of p38 phosphorylation in IgE-sensitized rat RBL2H3 cells at 20 uM; format: cell-based
[10] = system: Phospholipase C-gamma-2, Rattus norvegicus; test: Inhibition of PLC-gamma2 phosphorylation in IgE-sensitized rat RBL2H3 cells at 20 uM; settings: RBL-2H3
[11] = molecular target: Mitogen-activated protein kinase 3 (ERK1), Rattus norvegicus (UniProt P21708); test: Inhibition of ERK1 phosphorylation in IgE-sensitized rat RBL2H3 cells at 20 uM; settings: RBL-2H3
RBL-2H3 [12] = test: Decrease in FcepsilonRI-induced intracellular ROS level in IgE-sensitized rat RBL2H3 cells assessed as DCF oxidation at 20 uM after 30 mins; format: functional, cell-based
[13] = molecular target: Mitogen-activated protein kinase 9 (JNK2), Rattus norvegicus (UniProt P49186); test: Inhibition of JNK2 phosphorylation in IgE-sensitized rat RBL2H3 cells at 20 uM; settings: RBL-2H3
Chain of Mitogen-activated protein kinase 9 (JNK2), Rattus norvegicus (P49186 whole entry, looked up): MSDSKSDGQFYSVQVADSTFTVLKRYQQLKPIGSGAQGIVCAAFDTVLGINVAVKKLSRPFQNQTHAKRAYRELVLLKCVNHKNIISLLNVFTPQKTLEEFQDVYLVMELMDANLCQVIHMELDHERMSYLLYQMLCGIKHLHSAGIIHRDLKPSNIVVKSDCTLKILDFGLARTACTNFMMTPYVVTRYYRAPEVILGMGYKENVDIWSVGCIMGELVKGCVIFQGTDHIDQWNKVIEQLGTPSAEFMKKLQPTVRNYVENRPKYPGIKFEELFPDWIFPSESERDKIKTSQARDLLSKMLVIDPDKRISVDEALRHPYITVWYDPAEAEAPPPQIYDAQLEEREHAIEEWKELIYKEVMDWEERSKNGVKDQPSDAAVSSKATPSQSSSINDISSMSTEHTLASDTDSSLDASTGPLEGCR

[14] = molecular target: Tyrosine-protein kinase SYK (Rattus norvegicus) (UniProt Q64725); test: Inhibition of Syk phosphorylation in IgE-sensitized rat RBL2H3 cells at 20 uM; format: cell-based; settings: RBL-2H3
Chain of Tyrosine-protein kinase SYK (Rattus norvegicus) (Q64725 whole entry, looked up): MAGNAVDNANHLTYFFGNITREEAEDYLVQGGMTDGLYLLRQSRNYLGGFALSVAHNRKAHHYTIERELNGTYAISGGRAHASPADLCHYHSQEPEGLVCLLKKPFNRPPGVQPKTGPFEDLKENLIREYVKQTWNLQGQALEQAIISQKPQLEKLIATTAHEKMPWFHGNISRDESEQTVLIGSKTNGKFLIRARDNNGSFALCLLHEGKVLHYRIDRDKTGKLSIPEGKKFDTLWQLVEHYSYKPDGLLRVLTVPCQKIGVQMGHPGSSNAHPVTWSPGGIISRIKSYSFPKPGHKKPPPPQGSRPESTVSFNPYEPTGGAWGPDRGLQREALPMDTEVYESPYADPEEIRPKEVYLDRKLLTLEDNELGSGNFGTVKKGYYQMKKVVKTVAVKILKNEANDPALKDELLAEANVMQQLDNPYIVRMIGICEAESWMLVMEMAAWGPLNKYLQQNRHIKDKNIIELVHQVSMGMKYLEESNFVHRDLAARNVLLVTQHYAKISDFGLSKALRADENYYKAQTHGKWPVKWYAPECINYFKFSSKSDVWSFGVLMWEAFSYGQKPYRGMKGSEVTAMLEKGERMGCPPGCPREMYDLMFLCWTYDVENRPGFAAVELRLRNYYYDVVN

[15] = molecular target: Mitogen-activated protein kinase 1 (ERK2), Rattus norvegicus (UniProt P63086); test: Inhibition of ERK2 phosphorylation in IgE-sensitized rat RBL2H3 cells at 20 uM; settings: RBL-2H3
RBL-2H3 [16] = test: Inhibition of DNP-BSA stimulated histamine release in IgE-sensitized rat RBL2H3 cells after 30 mins; format: functional, cell-based
[17] = system: Radical scavenging activity; test: Antioxidant activity assessed as DPPH radical scavenging activity; format: functional
[18] = molecular target: Tyrosine-protein kinase SYK (Rattus norvegicus) (UniProt Q64725); test: Inhibition of ERK1 phosphorylation in IgE-sensitized rat RBL2H3 cells […] at 50 uM after 30 mins; format: cell-based; settings: RBL-2H3
[19] = molecular target: Tyrosine-protein kinase SYK (Rattus norvegicus) (UniProt Q64725); test: Inhibition of ERK2 phosphorylation in IgE-sensitized rat RBL2H3 cells […] at 50 uM after 30 mins; format: cell-based; settings: RBL-2H3
[20] = molecular target: Mitogen-activated protein kinase 3 (ERK1), Rattus norvegicus (UniProt P21708); test: Inhibition of ERK1 phosphorylation in IgE-sensitized rat RBL2H3 cells […] at 100 uM after 30 mins; settings: RBL-2H3

Compound | Activity (RBL-2H3 [3]) | Activity [6] | Activity (RBL-2H3 [7]) | Activity [8] | Activity (RBL-2H3 [9]) | Activity [11] | Activity (RBL-2H3 [12]) | Activity [13] | Activity [14] | Activity [15] | Activity (RBL-2H3 [16]) | further results
COc1ccc2c(c1)c(C1=C(c3c[nH]c4ccccc34)C(=O)NC1=O)cn2CCCN(C)C |  |  |  |  |  |  |  |  |  |  |  | Activity [1]: inactive; Activity [2]: inactive
O=c1cc(N2CCOCC2)oc2c(-c3ccccc3)cccc12 | Active |  |  |  |  |  |  |  |  |  |  | Activity [4]: inactive
COc1cc2oc3cc(O)c(OC)c(CC=C(C)C)c3c(=O)c2c(O)c1CC=C(C)C | inactive | inactive | Active | inactive | inactive | Active | inactive | inactive | Active | Active | Dose-dependent effect | Activity [5]: Active; Activity [10]: Active
CC(C)=CCc1c(O)cc2oc3cc(O)c(O)c(CC=C(C)C)c3c(=O)c2c1O | inactive | inactive | Active | inactive | inactive | Active | Active | inactive | Active | Active | Dose-dependent effect | Activity [17]: Active
COc1c(O)cc2oc3cc(O)c(CC=C(C)C)c(O)c3c(=O)c2c1CC=C(C)C | inactive | inactive | Active | inactive | inactive | Active | inactive | inactive | Active | Active | Dose-dependent effect | 
COc1c(C[C@@H](C)OC(=O)Oc2ccc(O)cc2)c2c3c(C[C@@H](C)OC(=O)c4ccccc4)c(OC)c(=O)c4c(O)cc(OC)c(c5c(OC)cc(O)c(c1=O)c52)c43 |  |  |  |  |  |  |  |  |  |  |  | Activity [18]: inactive; Activity [19]: inactive
CN(C)C[C@H]1CCn2c(c(C3=C(c4cn(C)c5ccccc45)C(=O)NC3=O)c3ccccc32)C1 |  |  |  |  |  |  |  |  |  |  |  | Activity [20]: inactive; Activity [1]: inactive
CC(=O)c1c(O)c(C)c(O)c(Cc2c(O)c3c(c(C(=O)/C=C/c4ccccc4)c2O)OC(C)(C)C=C3)c1O |  |  |  |  |  |  |  |  |  |  |  | Activity [20]: inactive; Activity [4]: inactive
